From patent publication US8017792B2, “1-thio-D-glucitol derivatives” (Taisho Pharmaceutical Co., Ltd., priority 2005, dated 2011)

Assays:
Human SGLT1 = target: T1, Human SGLT1 (Homo sapiens, UniProt P13866); assay: Sodium-dependent sugar uptake inhibition test in CHO-K1 cells stably expressing human SGLT1 (Test Example 2); format: cell-based; details: [14C]methyl-α-D-glucopyranoside 0.1 mM, 37° C., 30 minutes
T1 construct: expressed in transfected cells; host or cells: CHO-K1
T1 sequence (P13866 1-664): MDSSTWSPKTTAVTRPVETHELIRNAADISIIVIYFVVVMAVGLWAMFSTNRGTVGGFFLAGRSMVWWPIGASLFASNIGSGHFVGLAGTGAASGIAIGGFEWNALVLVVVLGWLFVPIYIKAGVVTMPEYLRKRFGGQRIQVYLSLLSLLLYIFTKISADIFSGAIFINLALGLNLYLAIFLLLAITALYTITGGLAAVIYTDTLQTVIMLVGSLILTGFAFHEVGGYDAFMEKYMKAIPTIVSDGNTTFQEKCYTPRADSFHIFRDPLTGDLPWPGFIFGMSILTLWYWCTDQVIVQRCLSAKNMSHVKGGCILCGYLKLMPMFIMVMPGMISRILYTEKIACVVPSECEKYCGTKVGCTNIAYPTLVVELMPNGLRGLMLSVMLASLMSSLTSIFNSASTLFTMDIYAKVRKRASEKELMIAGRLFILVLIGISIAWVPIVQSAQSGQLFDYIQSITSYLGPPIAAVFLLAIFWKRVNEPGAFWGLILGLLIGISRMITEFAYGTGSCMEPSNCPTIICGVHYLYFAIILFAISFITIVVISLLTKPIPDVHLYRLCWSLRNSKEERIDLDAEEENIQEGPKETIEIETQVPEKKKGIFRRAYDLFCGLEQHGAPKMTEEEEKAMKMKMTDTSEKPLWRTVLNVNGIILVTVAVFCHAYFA
Description: (§1) Human SGLT1 sequence (NM_000343) was reverse-transcripted from human small intestinal mRNA, then amplified, and then introduced into pCMV-tag5A from Stratagene Corporation. Human SGLT2 sequence (NM_003041) was prepared from human nephric mRNA as with the above method, and then introduced into pcDNA3.1+hygro from Invitrogen Corporation. Each cloned sequence was confirmed to be identical with the reported sequence.
(§2) CHO-K1 cells were transfected with the human SGLT1 and human SGLT2 expression vectors using Lipofectamine 2000 (Invitrogen Corporation). SGLT expression cells were cultured in the presence of geneticin (SGLT1) or hygromycin B (SGLT2) of the concentration of 500 μg/mL to select resistant strains. Cells were obtained using sugar uptake specific activity as an index in the following system.
(§3) Cells stably expressing human SGLT1 and human SGLT2 were used in the sodium-dependent sugar uptake activity inhibition test. Cells were incubated in 1 mL of a pretreatment buffer solution (140 mM choline chloride, 2 mM KCl, 1 mM CaCl2, 1 mM MgCl2, 10 mM HEPES/5 mM Tris, pH 7.4) for 20 minutes. The pretreatment buffer solution was removed and 200 μL of an uptake buffer containing test compounds (methyl-α-D-glucopyranoside containing [^14C]methyl-α-D-glucopyranoside (0.1 mM for SGLT1 inhibition, 1 mM for SGLT2 inhibition), 140 mM NaCl, 2 mM KCl, 1 mM CaCl2, 1 mM MgCl2, 10 mM HEPES/5 mM Tris, pH 7.4) were added, and uptake reaction was performed at 37° C. for 30 minutes (SGLT1) or for one hour (SGLT2). After the reaction, cells were washed with 1 mL of a washing buffer (10 mM methyl-α-D-glucopyranoside, 140 mM choline chloride, 2 mM KCl, 1 mM CaCl2, 1 mM MgCl2, 10 mM HEPES/5 mM Tris, pH 7.4) twice and dissolved in 400 μL of 0.2 M NaOH solution. After Aquazole 2 (Perkin Elmer Corporation) was added and mixed well, radioactivity was measured with a liquid scintillation counter (Beckman Coulter Corporation). A buffer for uptake which contained no test compound was prepared as a control group. Another buffer solution for uptake containing choline chloride in place of NaCl was also prepared for basic uptake.

Human SGLT2 = target: T2, Human SGLT2 (Homo sapiens, UniProt P31639); assay: Sodium-dependent sugar uptake inhibition test in CHO-K1 cells stably expressing human SGLT2 (Test Example 2); format: cell-based; details: for IC50: CHO-K1 cells, [14C]methyl-α-D-glucopyranoside 1 mM, 37° C., one hour; for SGLT1/SGLT2: ratio of IC50 human SGLT1 to IC50 human SGLT2
T2 construct: expressed in transfected cells; host or cells: CHO-K1
T2 sequence (P31639 1-672): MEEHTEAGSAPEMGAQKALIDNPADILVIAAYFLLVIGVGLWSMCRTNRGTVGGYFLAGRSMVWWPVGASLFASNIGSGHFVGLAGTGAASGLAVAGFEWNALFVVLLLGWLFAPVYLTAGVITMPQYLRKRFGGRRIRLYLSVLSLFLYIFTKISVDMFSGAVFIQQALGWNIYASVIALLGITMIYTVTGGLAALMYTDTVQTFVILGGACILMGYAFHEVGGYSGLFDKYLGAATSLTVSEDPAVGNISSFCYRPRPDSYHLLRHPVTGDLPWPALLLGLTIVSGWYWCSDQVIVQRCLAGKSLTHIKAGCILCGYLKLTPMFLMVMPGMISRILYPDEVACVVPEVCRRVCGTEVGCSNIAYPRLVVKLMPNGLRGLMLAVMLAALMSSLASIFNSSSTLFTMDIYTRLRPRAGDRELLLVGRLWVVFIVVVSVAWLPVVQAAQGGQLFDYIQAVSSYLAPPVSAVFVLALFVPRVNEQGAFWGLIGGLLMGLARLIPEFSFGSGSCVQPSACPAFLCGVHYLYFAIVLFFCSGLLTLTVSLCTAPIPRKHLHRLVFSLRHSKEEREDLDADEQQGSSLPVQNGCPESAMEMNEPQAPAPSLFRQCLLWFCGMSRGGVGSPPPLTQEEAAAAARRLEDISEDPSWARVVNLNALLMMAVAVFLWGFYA
Description: as §1, §2, §3

SMILES | IC50 (Human SGLT1) [nM] | IC50 (Human SGLT2) [nM] | SGLT1/SGLT2 (Human SGLT2)
CCOc1ccc(Cc2cc([C@@H]3S[C@H](CO)[C@@H](O)[C@H](O)[C@H]3O)ccc2C)cc1 [Compound 86, (1S)-1,5-Anhydro-1-[3-(4-ethoxybenzyl)-4-methylphenyl]-1-thio-D-glucitol] | 1100 | 60 | 18.3
CSc1ccc(Cc2cc([C@@H]3S[C@H](CO)[C@@H](O)[C@H](O)[C@H]3O)ccc2Cl)cc1 [Compound 93, (1S)-1,5-Anhydro-1-[4-chloro-3-(4-methylthiobenzyl)phenyl]-1-thio-D-glucitol] | 400 | 21 | 21.0
COc1cc(Cl)c(Cc2ccc(C(C)C)cc2)cc1[C@@H]1S[C@H](CO)[C@@H](O)[C@H](O)[C@H]1O [Compound 103, (1S)-1,5-Anhydro-1-[4-chloro-3-(4-isopropylbenzyl)-6-methoxyphenyl]-1-thio-D-glucitol] | 23900 | 69 | 347.9
CCOc1ccc(Cc2cc([C@@H]3S[C@H](CO)[C@@H](O)[C@H](O)[C@H]3O)ccc2OC)cc1 [Compound 77, (1S)-1,5-Anhydro-1-[3-(4-ethoxybenzyl)-4-methoxyphenyl]-1-thio-D-glucitol] | 8000 | 690 | 11.6
CCc1ccc(Cc2cc([C@@H]3S[C@H](CO)[C@@H](O)[C@H](O)[C@H]3O)ccc2Cl)cc1 [Compound 95, (1S)-1,5-Anhydro-1-[4-chloro-3-(4-ethylbenzyl)phenyl]-1-thio-D-glucitol] | – | 28 | 22.3
COc1cc(C)c(Cc2ccc(C(C)C)cc2)cc1[C@@H]1S[C@H](CO)[C@@H](O)[C@H](O)[C@H]1O [Compound 105, (1S)-1,5-Anhydro-1-[3-(4-isopropylbenzyl)-6-methoxy-4-methylphenyl]-1-thio-D-glucitol] | 17000 | 93 | 182.5
CCOc1ccc(Cc2cc([C@@H]3S[C@H](CO)[C@@H](O)[C@H](O)[C@H]3O)c(OC)cc2Cl)cc1 [Compound 99, (1S)-1,5-anhydro-1-[4-chloro-5-(4-ethoxybenzyl)-2-methoxyphenyl]-1-thio-D-glucitol] | 5600 | 32 | 178.6
OC[C@H]1S[C@@H](c2ccc(Cl)c(Cc3cc4ccccc4o3)c2)[C@H](O)[C@@H](O)[C@@H]1O [Compound 132, (1S)-1,5-Anhydro-1-[3-[(1-benzofuran-2-yl)methyl]-4-chlorophenyl]-1-thio-D-glucitol] | 4400 | 497 | 8.9
Cc1ccc(Cc2cc([C@@H]3S[C@H](CO)[C@@H](O)[C@H](O)[C@H]3O)ccc2Cl)cc1 [Compound 92, (1S)-1,5-Anhydro-1-[4-chloro-3-(4-methylbenzyl)phenyl]-1-thio-D-glucitol] | 200 | 30 | 7.7
CCOc1ccc(Cc2cc([C@@H]3S[C@H](CO)[C@@H](O)[C@H](O)[C@H]3O)c(OC)cc2C)cc1 [Compound 89, (1S)-1,5-anhydro-1-[3-(4-ethoxybenzyl)-6-methoxy-4-methylphenyl]-1-thio-D-glucitol] | 6300 | 65 | 97.5
COc1cc(C)c(Cc2ccc(C)cc2)cc1[C@@H]1S[C@H](CO)[C@@H](O)[C@H](O)[C@H]1O [Compound 104, (1S)-1,5-Anhydro-1-[3-(4-methylbenzyl)-6-methoxy-4-methylphenyl]-1-thio-D-glucitol] | 1000 | 34 | 29.8
CCc1ccc(Cc2ccc([C@@H]3S[C@H](CO)[C@@H](O)[C@H](O)[C@H]3O)s2)cc1 [Compound 139, (1S)-1,5-anhydro-1-[5-(4-ethylbenzyl)thiophen-2-yl]-1-thio-D-glucitol] | – | 114000 | –
COc1cc(OC)c([C@@H]2S[C@H](CO)[C@@H](O)[C@H](O)[C@H]2O)cc1Cc1cc2ccccc2s1 [Compound 131, (1S)-1,5-Anhydro-1-[3-[(1-benzothien-2-yl)methyl]-4,6-dimethoxyphenyl]-1-thio-D-glucitol] | 4100 | 890 | 4.7
OC[C@H]1S[C@@H](c2cccc(Cc3ccc(-c4ccccc4)s3)c2)[C@H](O)[C@@H](O)[C@@H]1O [Compound 134] | – | 2910 | –
CCc1ccc(Cc2cc([C@@H]3S[C@H](CO)[C@@H](O)[C@H](O)[C@H]3O)c(OC)cc2C)cc1 [Compound 101, (1S)-1,5-Anhydro-1-[3-(4-ethylbenzyl)-6-methoxy-4-methylphenyl]-1-thio-D-glucitol] | 2600 | 40 | 63.1
CCc1ccc(Cc2cc([C@@H]3S[C@H](CO)[C@@H](O)[C@H](O)[C@H]3O)c(OC)cc2Cl)cc1 [Compound 102, (1S)-1,5-Anhydro-1-[4-chloro-3-(4-ethylbenzyl)-6-methoxyphenyl]-1-thio-D-glucitol] | 3500 | 40 | 86.6
CC(C)c1ccc(Cc2cc([C@@H]3S[C@H](CO)[C@@H](O)[C@H](O)[C@H]3O)ccc2Cl)cc1 [Compound 96, (1S)-1,5-Anhydro-1-[4-chloro-3-(4-isopropylbenzyl)phenyl]-1-thio-D-glucitol] | 7300 | 62 | 116.3
OC[C@H]1S[C@@H](c2ccc(Cl)c(Cc3ccc(O)cc3)c2)[C@H](O)[C@@H](O)[C@@H]1O [Compound 94, (1S)-1,5-Anhydro-1-[4-chloro-3-(4-hydroxybenzyl)phenyl]-1-thio-D-glucitol] | 300 | 250 | 1.3
CCOc1ccc(Cc2cc([C@@H]3S[C@H](CO)[C@@H](O)[C@H](O)[C@H]3O)ccc2O)cc1 [Compound 82, (1S)-1,5-Anhydro-1-[3-(4-ethoxybenzyl)-4-hydroxyphenyl]-1-thio-D-glucitol] | 15000 | 3780 | 4.0
CCc1ccc(Cc2cccc([C@@H]3S[C@H](CO)[C@@H](O)[C@H](O)[C@H]3O)c2)cc1 [Compound 74, (1S)-1,5-anhydro-1-[3-(4-ethylbenzyl)phenyl]-1-thio-D-glucitol] | 15300 | 1190 | 12.8
CCOc1ccc(Cc2cncc([C@@H]3S[C@H](CO)[C@@H](O)[C@H](O)[C@H]3O)c2)cc1 [Compound 138, (1S)-1,5-anhydro-1-[5-(4-ethoxybenzyl)pyridin-3-yl]-1-thio-D-glucitol] | – | 33000 | –
